Data as given in article PMC6385020 (Molecules, 2019).

Experiments:
[1] = test system: ds26 (DNA, duplex) CAATCGGATCGAATTCGATCCGATTG; assay: G4-FID, thiazole orange displacement; settings: 100 mM KCl; 10 mM lithium cacodylate pH 7.3, 1% DMSO; thiazole orange displaced; 1 µM compound, 0.25 µM DNA
duplex ds26 DNA = assay: TO-PRO-3 G4-FID assay; format: binding; settings: ds26, K+100 buffer
Protocol: For the G4-FID assay, the oligonucleotides were dissolved in K^+100 buffer (10 mM lithium cacodylate buffer pH 7.3, 100 mM KCl, 1% DMSO). Oligonucleotide concentrations were determined on the basis of their absorbance at 260 nm. For the fluorimetric titration, the oligonucleotides were dissolved in K^+100 buffer without DMSO. For the FRET-melting assay, the oligonucleotides were dissolved in K^+1 buffer (10 mM lithium cacodylate buffer pH 7.3, 1 mM KCl, 99 mM LiCl) except for F-21-T. F-21-T was dissolved in K^+10 buffer (10 mM lithium cacodylate buffer pH 7.3, 10 mM KCl, 90 mM LiCl). […]
Each G4-FID assay was performed in a 96-well Non-Binding Surface black with black bottom polystyrene microplates (Corning). […] After 5 min of orbital shaking at 500 rpm, fluorescence is measured using the following experimental parameters: positioning delay of 0.5 s, 20 flashes per well, emission/excitation filters for TO at 485/520, TO-PRO-3 at 620/670, and PhenDV at 355/520 gain adjusted at 80% of the fluorescence from the most fluorescent well (i.e., a well from column A for TO and a well from column H).
The percentage of TO displacement is calculated from the fluorescence intensity (F), using (1) % TO displacement=1−F/F0 where F0 is the fluorescence from the fluorescent probe bound to DNA without added ligand. […]

[2] = test system: 21CTA (DNA, G4) AGGGCTAGGGCTAGGGCTAGGG; assay: G4-FID, thiazole orange displacement; settings: 100 mM KCl; 10 mM lithium cacodylate pH 7.3, 1% DMSO; thiazole orange displaced; 1 µM compound, 0.25 µM DNA
c-myc G4 DNA = assay: Platination of c-myc followed by denaturing gel electrophoresis; format: biochemical; settings: for platination products on gel electrophoresis: c-myc 100 µM, 18 h at 32 °C, K+100 buffer; for platination of c-myc during melting temperature experiments: 0.2 µM c-myc, 1 µM complex, 25 to 95 °C gradient, K+1 buffer; for selectivity of platination, c-myc G4 vs duplex ds26 (competition kinetics): c-myc 0.2 µM, ds26 10 µM
Protocol: The five platinum complexes were incubated for 18 h at 32 °C with pre-folded 5’-end ^32P radiolabeled c-myc DNA (10 or 100 µM) and loaded on denaturing polyacrylamide gel electrophoresis (Figure 4).
Two main accelerated bands (A1 and A2) were detected for Pt-ttpy and three were detected for Pt-tpy (B1, B2, and B3) in the presence of 10 µM of DNA. However, for Pt-BisQ, two accelerated bands (C1 and C2) and one retarded band (C3) were only detected at higher DNA concentration (100 µM). It is noteworthy that c-myc platination products migrate faster that the non-platinated G4, resulting in a stark contrast if compared to 22AG in which platination products migrate slower (Figure 2): this is due to the presence of the still folded G4 structures that resist to denaturation, as already found. […] The platination sites of Pt-ttpy, Pt-tpy, and Pt-BisQ were determined by 3’-exonuclease digestion, which stops at the platinated base, followed by a de-platination treatment of the digested fragments with NaCN (Figures S6 and S7). The exact length of the digested de-platinated fragment was deduced from its migration compared with the one of a digestion ladder of the c-myc sequence on a denaturating gel electrophoresis.
(§1) The oligonucleotides were 5’-end-labelled using a polynucleotide kinase and (γ^32P)-ATP (Perkin Helmer). The reaction products were purified by electrophoresis on 20% denaturing gel. Sample platinations were prepared by folding a mixture of 5’-end-radiolabeled DNA and 10 µM or 100 µM of non-radiolabeled material in 100 mM KClO4 or 100 mM KCl solution except for the platination reaction in the denaturing temperature conditions. The folding was achieved by heating the samples at 90 °C for 5 min, followed by slow cooling to room temperature over the course of 2 h to induce the formation of the quadruplex structure. It was then incubated with platinum complexes, and platinated products were separated by electrophoresis on 15% denaturing gel. They were then eluted from gel, precipitated, treated by 3’-exonuclease at 37 °C for 30 min, and loaded on a 20% denaturing gel. The digested fragments were eluted from this gel precipitated, treated over night by NaCN 0.2M, precipitated, and loaded once again on a 20% denaturing gel. Gels were scanned using a STORM860 (Molecular Dynamics).

22AG human telomeric G4 = assay: Platination of 22AG followed by denaturing gel electrophoresis; format: biochemical; settings: 0.2 µM 22AG, 1 µM complex, 25 to 95 °C gradient, K+10 buffer
Source text: Since all these complexes (except for Pt(PA)-tpy) are susceptible to induce platination reactions, they can be exacerbated by a high temperature and by an increased number of nucleophilic sites which are exposed during unfolding (increased N7 G free sites); we wonder if such a reaction could occur during FRET-melting experiments and to what extent. Therefore, we followed the extent of platination reactions of c-myc and 22AG (same sequences as those used for FRET-melting but without fluorophore labeling) as a function of the melting temperature using ^32P-labelled oligonucleotides and denaturing gel electrophoresis (Figure 2).
as §1, with “They were then eluted from gel, precipitated, treated by 3’-exonuclease at 37 °C for 30 min, and loaded on a 20% denaturing gel. The digested fragments were eluted from this gel precipitated, treated over night by NaCN 0.2M, precipitated, and loaded once again on a 20% denaturing gel. Gels were scanned using a STORM860 (Molecular Dynamics).” left out

[3] = test system: c-myc* (DNA, G4) TGAGGGTGGGTAGGGTGGGTAA; assay: denaturing gel electrophoresis, 3'-exonuclease digestion; settings: 100 mM KCl or KClO4; covalent; platination mainly A21/A22, also A12/G13; 18 h, 32 °C, 10 µM DNA
[4] = test system: 21CTA (DNA, G4) AGGGCTAGGGCTAGGGCTAGGG; assay: G4-FID, TO-PRO-3 displacement; settings: 100 mM KCl; 10 mM lithium cacodylate pH 7.3, 1% DMSO; TO-PRO-3 displaced; 1 µM compound, 0.25 µM DNA
[5] = test system: c-myc (myc22) (DNA, G4) TGAGGGTGGGTAGGGTGGGTAA; assay: G4-FID, TO-PRO-3 displacement; settings: 100 mM KCl; 10 mM lithium cacodylate pH 7.3, 1% DMSO; TO-PRO-3 displaced; 1 µM compound, 0.25 µM DNA

| SMILES | % TO displacement [1] | % of TOPRO3 displacement at 1 µM of ligand (duplex ds26 DNA) | % TO displacement [2] | platination products on gel electrophoresis (c-myc G4 DNA) | platination of 22AG during melting temperature experiments (22AG human telomeric G4) | platination of c-myc during melting temperature experiments (c-myc G4 DNA) | selectivity of platination, c-myc G4 vs duplex ds26 (competition kinetics) (c-myc G4 DNA; K+10 buffer) | incubation time to metallate a large amount of c-myc* (c-myc G4 DNA; c-myc* 0.2 µM, K+10 buffer, 25 °C) | binding [3] | % TO-PRO-3 displacement [4] | % TO-PRO-3 displacement [5] |
| --- | --- | --- | --- | --- | --- | --- | --- | --- | --- | --- | --- |
| CN(C)CCCNCc1ccc(-c2cc(-c3ccccn3)nc(-c3ccccn3)c2)cc1.[Cl-].[Cl][Pt+] [Pt-ctpy] | < 20% | 24% | > 80% | Non-defined platination products | – | – | – | – | – | – | – |
| [Cl-].[Cl][Pt+].c1ccc(-c2cc(-c3ccc(OCCN4CCCC4)cc3)nc(-c3ccccn3)n2)nc1 [Pt-cpym, Chloro-(2,4-di(pyridin-2-yl)-6-(4-(2-(pyrrolidin-1-yl)ethoxy)phenyl)pyrimidine)-platinum(II) Chloride] | – | – | < 60% | Non-defined platination products | – | – | – | – | – | – | – |
| Cc1ccc(-c2cc(-c3ccccn3)nc(-c3ccccn3)c2)cc1.[Cl-].[Cl][Pt+] [Pt-ttpy] | < 20% | 13% | > 80% | – | clearly platinate | clearly platinate | high selectivity | ≤ 120 min | yes | – | – |
| CN(C)c1ccc(/C=C/c2cc(-c3ccccn3)nc(-c3ccccn3)n2)cc1.[Cl-].[Cl][Pt+] [Pt-vpym, Chloro-(E)-4-(2-(2,6-di(pyridin-2-yl)pyrimidin-4-yl)vinyl)-N,N-dimethylaniline-platinum(II) Chloride] | – | – | – | Non-defined platination products | – | – | – | – | – | ~ 30% | ~ 30% |
| [Cl-].[Cl][Pt+].c1ccc(-c2cccc(-c3ccccn3)n2)nc1 [Pt-tpy] | – | – | – | – | clearly platinate | clearly platinate | low binding selectivity | – | – | – | – |
